In patent publication US10925283B2, “Microbiocidal phenylamidine derivatives” (SYNGENTA PARTICIPATIONS AG, priority 2016, dated 2021):

Tests used:
Format in all cases: in vivo
[1] = system: Puccinia recondita f. sp. tritici; assay: Puccinia recondita f. sp. tritici / wheat / leaf disc curative (brown rust); conditions: foliar, wheat leaf segments cv. Kanzler, compound applied 1 day after inoculation, assessed 6-8 days after application, read-out: control of Puccinia recondita f. sp. tritici (percent disease control compared to untreated)
Description: Puccinia recondita f. Sp. Tritici/Wheat/Leaf Disc Curative (Brown Rust) Wheat leaf segments cv. Kanzler are placed on agar in multiwell plates (24-well format). The leaf segments are inoculated with a spore suspension of the fungus. Plates are stored in darkness at 19° C. and 75% rh. The formulated test compound diluted in water is applied 1 day after inoculation. The leaf segments are incubated at 19° C. and 75% rh under a light regime of 12 h light/12 h darkness in a climate cabinet and the activity of a compound is assessed as percent disease control compared to untreated when an appropriate level of disease damage appears in untreated check leaf segments (6-8 days after application).

[2] = system: Blumeria graminis f. sp. tritici (Erysiphe graminis f. sp. tritici); assay: Blumeria graminis f. sp. tritici / wheat / leaf disc preventative (powdery mildew on wheat); conditions: foliar, wheat leaf segments cv. Kanzler, inoculated 1 day after application, assessed 6-8 days after application, read-out: control of Blumeria graminis f. sp. tritici (percent disease control compared to untreated)
Description: Blumeria graminis f. sp. tritici (Erysiphe graminis f. sp. tritici)/Wheat/Leaf Disc Preventative (Powdery Mildew on Wheat) Wheat leaf segments cv. Kanzler are placed on agar in a multiwell plate (24-well format) and sprayed with the formulated test compound diluted in water. The leaf disks are inoculated by shaking powdery mildew infected plants above the test plates 1 day after application. The inoculated leaf disks are incubated at 20° C. and 60% rh under a light regime of 24 h darkness followed by 12 h light/12 h darkness in a climate chamber and the activity of a compound is assessed as percent disease control compared to untreated when an appropriate level of disease damage appears on untreated check leaf segments (6-8 days after application).

Phakopsora pachyrhizi = Phakopsora pachyrhizi / soybean / preventative (soybean rust); conditions: foliar, soybean leaf disks, inoculated one day after application, assessed 12-14 days after application, read-out: control of Phakopsora pachyrhizi (percent disease control compared to untreated)
Description: Phakopsora pachyrhizi/Soybean/Preventative (Soybean Rust) Soybean leaf disks are placed on water agar in multiwell plates (24-well format) and sprayed with the formulated test compound diluted in water. One day after application leaf discs are inoculated by spraying a spore suspension on the lower leaf surface. After an incubation period in a climate cabinet of 24-36 hours in darkness at 20° C. and 75% rh leaf disc are kept at 20° C. with 12 h light/day and 75% rh. The activity of a compound is assessed as percent disease control compared to untreated when an appropriate level of disease damage appears in untreated check leaf disks (12-14 days after application).

[3] = system: Puccinia recondita f. sp. tritici; assay: Puccinia recondita f. sp. tritici / wheat / leaf disc preventative (brown rust); conditions: foliar, wheat leaf segments cv. Kanzler, inoculated 1 day after application, assessed 7-9 days after application, read-out: control of Puccinia recondita f. sp. tritici (percent disease control compared to untreated)
Description: Puccinia recondita f. Sp. Tritici/Wheat/Leaf Disc Preventative (Brown Rust) Wheat leaf segments cv. Kanzler are placed on agar in multiwell plates (24-well format) and sprayed with the formulated test compound diluted in water. The leaf disks are inoculated with a spore suspension of the fungus 1 day after application. The inoculated leaf segments are incubated at 19° C. and 75% rh under a light regime of 12 h light/12 h darkness in a climate cabinet and the activity of a compound is assessed as percent disease control compared to untreated when an appropriate level of disease damage appears in untreated check leaf segments (7-9 days after application).

Measured: pest or weed control at 200 ppm

CCOCC(O)(c1cc(C)c(/N=C/N(C)CC)cc1OC)C(F)(F)F (centres unmarked) [E.002, N′-[4-[1-(ethoxymethyl)-2,2,2-trifluoro-1-hydroxy-ethyl]-5-methoxy-2-methyl-phenyl]-N-ethyl-N-methyl-formamidine]
≥ 80%: all assays above

CCN(C)/C=N/c1cc(OC)c(C(O)(CO[C@H]2CC[C@H](C)CC2)C(F)(F)F)cc1C (some centres unmarked) [E.004, N-ethyl-N′-[5-methoxy-2-methyl-4-[2,2,2-trifluoro-1-hydroxy-1-[(4-methylcyclohexoxy)methyl]ethyl]phenyl]-N-methyl-formamidine]
≥ 80%: Phakopsora pachyrhizi

CCN(C)/C=N/c1cc(OC)c(C(O)(COC2CC(C)CC(C)C2)C(F)(F)F)cc1C (centres unmarked) [E.006, N′-[4-[1-[(3,5-dimethylcyclohexoxy)methyl]-2,2,2-trifluoro-1-hydroxy-ethyl]-5-methoxy-2-methyl-phenyl]-N-ethyl-N-methyl-formamidine]
≥ 80%: all assays above

CCN(C)/C=N/c1cc(OC)c(C(O)(COCC2CCC2)C(F)(F)F)cc1C (centres unmarked) [E.011, N′-[4-[1-(cyclobutylmethoxymethyl)-2,2,2-trifluoro-1-hydroxy-ethyl]-5-methoxy-2-methyl-phenyl]-N-ethyl-N-methyl-formamidine]
≥ 80%: all assays above

CCCCOCC(O)(c1cc(C)c(/N=C/N(C)CC)cc1OC)C(F)(F)F (centres unmarked) [E.013, N′-[4-[1-(butoxymethyl)-2,2,2-trifluoro-1-hydroxy-ethyl]-5-methoxy-2-methyl-phenyl]-N-ethyl-N-methyl-formamidine]
≥ 80%: all assays above

CCCOCC(O)(c1cc(C)c(/N=C/N(C)CC)cc1OC)C(F)(F)F (centres unmarked) [E.014, N-ethyl-N′-[5-methoxy-2-methyl-4-[2,2,2-trifluoro-1-hydroxy-1-(propoxymethyl)ethyl]phenyl]-N-methyl-formamidine]
≥ 80%: all assays above

CCOCCOCC(O)(c1cc(C)c(/N=C/N(C)CC)cc1OC)C(F)(F)F (centres unmarked) [E.020, N′-[4-[1-(2-ethoxyethoxymethyl)-2,2,2-trifluoro-1-hydroxy-ethyl]-5-methoxy-2-methyl-phenyl]-N-ethyl-N-methyl-formamidine]
≥ 80%: all assays above

CCN(C)/C=N/c1cc(OC)c(C(O)(COCCc2ccccc2)C(F)(F)F)cc1C (centres unmarked) [E.021, N-ethyl-N′-[5-methoxy-2-methyl-4-[2,2,2-trifluoro-1-hydroxy-1-(2-phenylethoxymethyl)ethyl]phenyl]-N-methyl-formamidine]
≥ 80%: all assays above

CCC(CC)OCC(O)(c1cc(C)c(/N=C/N(C)CC)cc1OC)C(F)(F)F (centres unmarked) [E.024, N-ethyl-N′-[4-[1-(1-ethylpropoxymethyl)-2,2,2-trifluoro-1-hydroxy-ethyl]-5-methoxy-2-methyl-phenyl]-N-methyl-formamidine]
≥ 80%: Phakopsora pachyrhizi

CCN(C)/C=N/c1cc(OC)c(C(O)(COCc2ccc(C)cc2)C(F)(F)F)cc1C (centres unmarked) [E.027, N-ethyl-N′-[5-methoxy-2-methyl-4-[2,2,2-trifluoro-1-hydroxy-1-(p-tolylmethoxymethyl)ethyl]phenyl]-N-methyl-formamidine]
≥ 80%: all assays above

CCN(C)/C=N/c1cc(OC)c(C(O)(COC2CCCC2)C(F)(F)F)cc1C (centres unmarked) [E.032, N′-[4-[1-(cyclopentoxymethyl)-2,2,2-trifluoro-1-hydroxy-ethyl]-5-methoxy-2-methyl-phenyl]-N-ethyl-N-methyl-formamidine]
≥ 80%: Phakopsora pachyrhizi

CCN(C)/C=N/c1cc(OC)c(C(O)(COC2CCC(C)(C)CC2)C(F)(F)F)cc1C (centres unmarked) [E.038, N′-[4-[1-[(4,4-dimethylcyclohexoxy)methyl]-2,2,2-trifluoro-1-hydroxy-ethyl]-5-methoxy-2-methyl-phenyl]-N-ethyl-N-methyl-formamidine]
≥ 80%: [1] | [2] | [3]

CCN(C)/C=N/c1cc(OC)c(C(O)(COCc2ccccc2)C(F)(F)F)cc1C (centres unmarked) [E.043, N′-[4-[1-(benzyloxymethyl)-2,2,2-trifluoro-1-hydroxy-ethyl]-5-methoxy-2-methyl-phenyl]-N-ethyl-N-methyl-formamidine]
≥ 80%: [2] | Phakopsora pachyrhizi | [3]

CCN(C)/C=N/c1cc(OC)c(C(O)(COCc2ccc(F)cc2)C(F)(F)F)cc1C (centres unmarked) [E.044, N-ethyl-N′-[5-methoxy-2-methyl-4-[2,2,2-trifluoro-1-[(4-fluorophenyl)methoxymethyl]-1-hydroxy-ethyl]phenyl]-N-methyl-formamidine]
≥ 80%: [2] | Phakopsora pachyrhizi | [3]

CCO/N=C(/CC(O)(c1cc(C)c(/N=C/N(C)CC)cc1OC)C(F)(F)F)c1ccccc1 (centres unmarked) [E.058, N′-[4-[(3Z)-3-ethoxyimino-1-hydroxy-3-phenyl-1-(trifluoromethyl)propyl]-5-methoxy-2-methyl-phenyl]-N-ethyl-N-methyl-formamidine]
≥ 80%: [1] | [2] | [3]

CCN(C)/C=N/c1cc(OC)c(C(O)(CS(=O)(=O)C(C)C)C(F)(F)F)cc1C (centres unmarked) [E.063, N-ethyl-N′-[5-methoxy-2-methyl-4-[2,2,2-trifluoro-1-hydroxy-1-(isopropylsulfonylmethyl)ethyl]phenyl]-N-methyl-formamidine]
≥ 80%: [1] | [2] | [3]

CCN(C)/C=N/c1cc(OC)c(C(O)(CS(=O)(=O)CC)C(F)(F)F)cc1C (centres unmarked) [E.067, N-ethyl-N′-[4-[1-(ethylsulfonylmethyl)-2,2,2-trifluoro-1-hydroxy-ethyl]-5-methoxy-2-methyl-phenyl]-N-methyl-formamidine]
≥ 80%: [1] | [2] | [3]

CCN(C)/C=N/c1cc(OC)c(C(O)(CSc2ccccc2)C(F)(F)F)cc1C (centres unmarked) [E.072, N-ethyl-N′-[5-methoxy-2-methyl-4-[2,2,2-trifluoro-1-hydroxy-1-(phenylsulfanylmethyl)ethyl]phenyl]-N-methyl-formamidine]
≥ 80%: [2] | Phakopsora pachyrhizi | [3]
